Patent US10221139B2, “Inhibitors of histone demethylases” (Gilead Sciences, Inc., priority 2012, dated 2019)

The compounds below were run against T1, PLU1 (KDM5B) (Homo sapiens, UniProt Q9UGL1) (assay: Immunofluorescence assay in U2OS cells transfected with pCMVHA PLU1 (H3K4me2 mark)). Conditions: 20 hours.
T1 construct: (1-752); host or cells: U2OS
T1 sequence (Q9UGL1 1-752): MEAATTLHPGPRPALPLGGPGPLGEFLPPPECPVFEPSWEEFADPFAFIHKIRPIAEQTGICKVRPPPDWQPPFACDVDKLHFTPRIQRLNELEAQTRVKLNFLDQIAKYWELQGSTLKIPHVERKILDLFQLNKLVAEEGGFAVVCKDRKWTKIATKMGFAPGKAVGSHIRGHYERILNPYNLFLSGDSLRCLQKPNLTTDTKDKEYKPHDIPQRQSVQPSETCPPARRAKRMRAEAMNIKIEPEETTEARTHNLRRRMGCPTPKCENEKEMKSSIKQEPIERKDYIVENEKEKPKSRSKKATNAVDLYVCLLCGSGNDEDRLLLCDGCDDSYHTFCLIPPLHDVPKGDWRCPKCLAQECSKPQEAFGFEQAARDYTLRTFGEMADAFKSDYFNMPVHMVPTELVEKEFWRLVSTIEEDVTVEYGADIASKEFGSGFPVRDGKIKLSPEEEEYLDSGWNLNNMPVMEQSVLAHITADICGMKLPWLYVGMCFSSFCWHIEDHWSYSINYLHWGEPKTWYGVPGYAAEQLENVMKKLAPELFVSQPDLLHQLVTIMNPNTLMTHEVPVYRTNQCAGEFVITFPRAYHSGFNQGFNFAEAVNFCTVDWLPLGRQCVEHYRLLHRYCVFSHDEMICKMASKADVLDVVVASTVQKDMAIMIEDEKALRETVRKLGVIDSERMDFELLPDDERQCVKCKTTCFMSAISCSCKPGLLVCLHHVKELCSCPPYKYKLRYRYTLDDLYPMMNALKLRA
Assay type: cell-based
Experimental: U2OS cells were seeded 24 hours before transfection. Transfection was performed with Fugene HD transfection reagent as recommended by the manufacturer. 6 hours after transfection, the cells were harvested and seeded into multi well plates into media containing compound. The media used was DMEM containing 5% FBS and pen/strep. 20 hours after incubation of cells with compounds, the cells were washed once in PBS, harvested by fixation with formaldehyde 4% aqueous solution, and washed 2 times in PBS. Subsequently, the cells were permeabilized in PBS with 0.2% Triton X-100 for 10 min at room temperature. Blocking was performed in PBS with 0.2% Triton X-100 and 5% FBS for 45 min at room temperature. The cells were incubated with primary antibodies diluted 1 μg/ml in blocking solution over night at 4° C. The primary antibodies used in the assays were HA.11 (Covance, MMS-101P) and the antibody detecting the mark specified in the Table 6 below. After incubation with primary antibodies, the cells were washed 3 times with PBS, incubated with secondary antibodies diluted 1:1000 (Alexa fluor 594 goat anti rabbit IgG, Invitrogen, A11012; Alexa flour 488 donkey anti mouse IgG, Invitrogen, A21202) and Hoechst, 20 μg/ml (Sigma, 33342) in blocking solution, and washed again 3 times with PBS. Finally, PBS was added and high throughput imaging and analysis were performed by an IN Cell Analyzer 1000 (GE Healthcare). The robot software analyzed individual cells and divided these into HA^+ (transfected cells) and HA^− (non-transfected cells). The IC50 values in Table 7 below were based on an average measure of the staining of the mark specified in the Table 6 below in the transfected cells.

Row | IC50 [µM] | Compound
1 | 1 to 50 | CCN(CCC#N)C(=O)CNCc1cc(C(=O)O)ccn1 [drawing 320, 2-[({[(2-cyanoethyl)(ethyl)carbamoyl]methyl}amino)methyl] pyridine-4-carboxylic acid]
2 | 1 to 50 | CCCCN1CCCC1CCNCc1cc(C(=O)O)ccn1 (stereo not shown) [drawing 321, 2-({[2-(1-butylpyrrolidin-2-yl)ethyl]amino}methyl) pyridine-4-carboxylic acid]
3 | > 50 | CN(CCCCN(Cc1ccccc1)C1CC1)C(=O)CNCc1cc(C(=O)O)ccn1 [drawing 323]

Each compound was assayed on MCF7 cells (assay: MCF7 cell proliferation assay (ATPlite)). Conditions: Homo sapiens, 120 hours.
Assay type: cell-based
Experimental: MCF7 cells were seeded at 1250 cells/well in 50 μl medium/well in black 96 well plates. Cells were incubated for 24 hours before addition of compound. Compounds were diluted in complete medium (50 μl/well) and added to the plates in duplicates. The total volume of medium in the wells was 100 μl, and the final concentration of DMSO 0.5%. Complete medium used was DMEM with GlutaMAX containing 10% FBS and pen/strep.
120 hours after addition of compounds, the plates were harvested and analyzed by ATPlite 1 Step (Perkin Elmer, cat no 6016739) according to the manufactures recommendation. Briefly, 100 μl ATP lite solution was added to each well, plates were vortexed at 700 rpm 2 minutes, followed by 20 minutes incubation in the dark, and then analyzed for luminescence on EnSpire 2300 Mulitilabel reader (Perkin Elmer). EC50 values were calculated using GraphPad Prism 6.

Row | EC50 [µM] | Compound
4 | 1 to 50 | CCN(CCN(C)C)C(=O)CNCc1cc(C(=O)OC(CNC(=O)C(F)(F)F)CC(=O)OC(C)C)ccn1 (stereo not shown) [drawing 290, propan-2-yl 3-(2-{[({[2-(dimethylamino)ethyl](ethyl)carbamoyl}methyl)amino]methyl}pyridine-4-carbonyloxy)-4-(trifluoroacetamido)butanoate]
5 | 1 to 50 | CCN(CCN(C)C)C(=O)CNCc1cc(C(=O)OCC(F)(F)F)ccn1 [drawing 292, 2,2,2-trifluoroethyl 2-{[({[2-(dimethylamino)ethyl](ethyl)carbamoyl}methyl)amino]methyl}pyridine-4-carboxylate]
6 | 1 to 50 | CCN(CCN(C)C)C(=O)CNCc1cc(C(=O)Nc2ncco2)ccn1 [drawing 293, 2-{[({[2-(dimethylamino)ethyl](ethyl)carbamoyl}methyl)amino]methyl}-N-(1,3-oxazol-2-yl)pyridine-4-carboxamide]
7 | < 1 | CCN(CCN(C)C)C(=O)CNCc1cc(C(=O)OCCF)ccn1 [drawing 294, 2-fluoroethyl 2-{[({[2-(dimethylamino)ethyl](ethyl)carbamoyl}methyl)amino]methyl}pyridine-4-carboxylate]
8 | < 1 | CCN(CCN(C)C)C(=O)CNCc1cc(C(=O)OCC(F)F)ccn1 [drawing 295, 2,2-difluoroethyl 2-{[({[2-(dimethylamino)ethyl](ethyl)carbamoyl}methyl)amino]methyl}pyridine-4-carboxylate]

Each compound was assayed on demethylation of H3K4 (H3K4me3 mark) in U2OS cells (assay: Histone lysine demethylase immunofluorescence assay, non-transfected U2OS cells (H3K4me3 staining)). Conditions: Homo sapiens, 20 hours.
Assay type: cell-based
Experimental: Histone Lysine Demethylase Immunofluorescence Assays for IC50 Value Determination, Non-Transfected Cells
U2OS cells were harvested and seeded into multi well plates into media containing compound. The media used was DMEM containing 5% FBS and pen/strep. 20 hours after incubation of cells with compounds, the cells were washed once in PBS, harvested by fixation with formaldehyde 4% aqueous solution, and washed 2 times in PBS. Subsequently, the cells were permeabilized in PBS with 0.2% Triton X-100 for 10 min at room temperature. Blocking was performed in PBS with 0.2% Triton X-100 and 5% FBS for 45 min at room temperature. The cells were incubated with αH3K4me3 primary antibody (Cell Signaling, #9751S) diluted 1:1000 in blocking solution over night at 4° C. After incubation with primary antibody, the cells were washed 3 times with PBS, incubated with secondary antibody diluted 1:1000 (Alexa fluor 594 goat anti rabbit IgG, Invitrogen, A11012) and Hoechst, 20 μg/ml (Sigma, 33342) in blocking solution, and washed again 3 times with PBS. Finally, PBS was added and high throughput imaging and analysis were performed by an IN Cell Analyzer 1000 (GE Healthcare). The IC50 values seen in Table 4 were based on an average measure of the staining of the H3K4me3 mark in cells.

Row | Compound | IC50 [µM]
9 | O=C(CNCc1cc(C(=O)O)ccn1)NC1CCN(CCCc2ccccc2)CC1 [drawing 223, 2-{[({[1-(3-phenylpropyl)piperidin-4-yl]carbamoyl}methyl)amino]methyl} pyridine-4-carboxylic acid] | > 50
10 | COC(=O)c1ccnc(CNCCCN2CCCC2)c1 [drawing 224, methyl 2-({[3-(pyrrolidin-1-yl)propyl]amino}methyl)pyridine-4-carboxylate] | 1 to 50
11 | CCN(CC)CCCCNCc1cc(C(=O)O)ccn1 [drawing 225, 2-({[4-(diethylamino)butyl]amino}methyl) pyridine-4-carboxylic acid] | 1 to 50
12 | CCN(CCN(C)C)C(=O)CNCc1cc(C(=O)O)ccn1 [drawing 226, 2-{[({[2-(dimethylamino)ethyl](ethyl)carbamoyl}methyl)amino]methyl}pyridine-4-carboxylic acid] | 1 to 50
13 | CCN(CC)CCCCNCc1cc(C(=O)Oc2ccc(OC)cc2)ccn1 [drawing 227, 4-methoxyphenyl 2-({[4-(diethylamino)butyl]amino}methyl) pyridine-4-carboxylate] | < 1
14 | CCOC(=O)c1ccccc1OC(=O)c1ccnc(CNCCCCN(CC)CC)c1 [drawing 228, 2-(ethoxycarbonyl)phenyl 2-({[4-(diethylamino)butyl]amino}methyl) pyridine-4-carboxylate] | < 1
15 | CCN(CC)CCCCNCc1cc(C(=O)OCCN(C)C)ccn1 [drawing 229, 2-(dimethylamino)ethyl 2-({[4-(diethylamino)butyl]amino}methyl) pyridine-4-carboxylate] | 1 to 50
16 | CCN(CC)CCCCNCc1cc(C(=O)OCCCN(C)C)ccn1 [drawing 230, 3-(dimethylamino)propyl 2-({[4-(diethylamino)butyl]amino}methyl) pyridine-4-carboxylate] | 1 to 50
17 | CCOC(=O)Nc1ccc(COC(=O)c2ccnc(CNCCCCN(CC)CC)c2)cc1 [drawing 231, {4-[(ethoxycarbonyl)amino]phenyl}methyl 2-({[4-(diethylamino)butyl]amino}methyl) pyridine-4-carboxylate] | < 1
18 | CCN(CC)CCCCNCc1cc(C(=O)Oc2c(OC)cccc2OC)ccn1 [drawing 232, 2,6-dimethoxyphenyl 2-({[4-(diethylamino)butyl]amino}methyl) pyridine-4-carboxylate] | < 1
19 | CCN(CCN(C)C)C(=O)CNCc1cc(C(=O)Oc2ccc(OC)cc2)ccn1 [drawing 234, 4-methoxyphenyl 2-{[({[2-(dimethylamino)ethyl](ethyl)carbamoyl}methyl)amino]methyl}pyridin-4-carboxylate] | < 1
20 | CCOC(=O)c1ccccc1OC(=O)c1ccnc(CNCC(=O)N(CC)CCN(C)C)c1 [drawing 235, 2-(ethoxycarbonyl)phenyl 2-{[({[2-(dimethylamino)ethyl](ethyl)carbamoyl}methyl)amino]methyl}pyridine-4-carboxylate] | < 1
21 | CCOC(=O)N(C)c1ccc(COC(=O)c2ccnc(CNCCCCN(CC)CC)c2)cc1 [drawing 236] | < 1

Other lines, results leading:

Row | IC50 [µM] | Compound
22 | < 1 | CCN(CCN(C)C)C(=O)CNCc1cc(C(=O)Oc2ccc(C(C)(C)C)cc2)ccn1 [drawing 237, 4-tert-butylphenyl 2-{[({[2-(dimethylamino)ethyl](ethyl)carbamoyl}methyl)amino]methyl}pyridine-4-carboxylate]
23 | < 1 | CCN(CCN(C)C)C(=O)CNCc1cc(C(=O)OC(C)CC(C)=O)ccn1 (stereo not shown) [drawing 238, 4-oxopentan-2-yl 2-{[({[2-(dimethylamino)ethyl](ethyl)carbamoyl}methyl)amino]methyl}pyridine-4-carboxylate]
24 | < 1 | CCN(CCN(C)C)C(=O)CNCc1cc(C(=O)OC(C)CCNC(=O)C(F)(F)F)ccn1 (stereo not shown) [drawing 239, 4-(trifluoroacetamido)butan-2-yl 2-{[({[2-(dimethylamino)ethyl](ethyl)carbamoyl}methyl)amino]methyl}pyridin-4-carboxylate]
25 | < 1 | CCN(CCN(C)C)C(=O)CNCc1cc(C(=O)OC(C)CCN(C)C(=O)C(F)(F)F)ccn1 (stereo not shown) [drawing 240, 4-(2,2,2-trifluoro-N-methylacetamido)butan-2-yl 2-{[({[2-(dimethylamino)ethyl](ethyl)carbamoyl}methyl)amino]methyl}pyridine-4-carboxylate]
